{
  "source": "patent US6348477B1",
  "about": "“Anti-herpesvirus compounds and methods for identifying, making and using same” (Boehringer Ingelheim(Canada) Ltd., priority 1995, dated 2002)",
  "key": {"[1]": {"test_system": "HCMV (strain AD169)", "experiment": "Inhibition of HCMV replication, plaque reduction assay (PRA, Hs-68 cells)", "format": "cell-based, human cytomegalovirus", "conditions": "Human betaherpesvirus 5, AD169, Hs68; Group 1 Table 1; read-out: PRA CMV EC50", "how_it_was_run": "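Hs-68 cells infected with about 50 PFU HCMV AD169 (2 h adsorption, 37°), then incubated with compound in 5% inactivated-FBS medium for 4 days, refed with fresh compound, 4 more days. Crystal violet-stained plaques counted; EC50 from percent plaque reduction versus untreated.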"}, "[2]": {"test_system": "HCMV (strain AD169)", "experiment": "Inhibition of HCMV replication, ELISA assay (Hs-68 cells, p28)", "format": "cell-based, human cytomegalovirus", "conditions": "Human betaherpesvirus 5, AD169, Hs68; Group 1 Table 1; read-out: ELISA CMV EC50", "how_it_was_run": "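Hs-68 cells infected with HCMV AD169 at MOI 0.01 PFU/cell (2 h adsorption), washed, then incubated with compound for 8 days at 37° in DMEM/5% FBS. Late protein p28 detected in fixed cells by mAb UL99 ELISA (HRP/OPD, 450 nm). EC50 from % inhibition of replication.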"}},
  "data": [
    {"smiles": "Nc1nc(-c2ccc(NC(=O)CN(CCc3ccccc3)C(=O)c3cccnc3)cc2)cs1", "note": "[Example 67]", "values": [
      {"measurement": "EC50", "setting": "[1]", "value": 93, "unit": "µM"},
      {"measurement": "EC50", "setting": "[2]", "value": 2.1, "unit": "µM"}
    ]}
  ]
}
